# Measurements from patent publication US20230181564A1, “Potent Tetrahydroquinolone Eliminates Apicomplexan Parasites” (The University of Chicago, priority 2020, published 2023).
# Assays:
# P. berghei sporozoites = conditions: doses between 1 and 20 mg/kg; not the prodrug; cited from earlier work
# [1] = tested on: T. gondii RH-YFP tachyzoites; test: In vitro challenge assay, RH strain YFP tachyzoites in HFF; assay type: cell-based, Toxoplasma gondii; conditions: requires hepatic metabolism
# Description: PBS Sol/Toxicity pH7.4 refers to solubility of the compound in Phosphate Buffered Saline (PBS) at pH7.4. […] Tachy/Brady IC50 was determined in studies in which cultures of parasites in HFF were treated with varying concentrations of the compound and there was 50% inhibition of the replication (number) of parasites. Parasites were RH-YFP expressing tachyzoites (Tachy) and EGS (Brady) strains. Studies of effects of inhibitors on HFF or on T.gondii tachyzoites were performed with triplicate wells in at least two biological replicate experiments. Studies of effects on bradyzoites were performed at least twice in at least two biological replicate experiments. Compounds with much less inhibition of mammalian than T. gondii cytochrome bc in the saffarine enzyme assay (indicated by **) provide potential to further develop compounds, if unanticipated toxicity occurs from JAG21.
# RH strain YFP Tachyzoites. Protocol was adapted from Fomovska et al. (2012; 2012a) for HFF. […] RH-YFP, lysed from host cells by passing twice through a 27-gauge needle, were counted, then diluted to 32,000/mL in IMDM-C. […] Plates were read using a fluorimeter (Synergy H4 Hybrid Reader, BioTek) to ascertain amount of relative fluorescence units (RFU) YFP, to measure parasite burden after treatment. Data were collected using Gen5 software with IC50 calculated by graphical analysis in Excel. […]
Compound,Efficacy in the P. berghei in vivo model (P. berghei sporozoites),Activity in tissue culture [1]
COc1cc2[nH]c(C)c(-c3ccc(Oc4ccc(OC(F)(F)F)cc4)cc3)c(=O)c2cc1Cl [ELQ 300],not effective,
COc1cc(C)c2c(Oc3cccc(C(F)(F)F)c3)c(OC)cc(NC(C)CCCN)c2n1 (centres unmarked) [Tafenoquine],,not active
